Experimental data: patent US20100144815A1, “AMINO ACID COMPOSITION” (priority 2007, published 2010)

Assays:
[1] = tested on: Mouse fibroblasts (3T3-L1 cells); assay: Fatty acid releasing activity in mouse fibroblasts differentiated to adipocytes (NEFA-C Test Wako); assay type: cell-based; conditions: 1 μM in PBS, 4 hours; triplicate; control 0.024
Experimental: The induction of differentiation from mouse fibroblasts (3T3-L1 cells) to adipocytes was carried out in 12-well multiwell plates according to a known procedure. After treatment over about 2 weeks to induce differentiation to adipocytes, it was confirmed under a microscope that large differences in the differentiation induction activity were not present among these wells.
[…] After 4 hours, 5 μL of the PBS solution was picked up and was transferred to a 96-well multiwell plate. The amount of free-fatty acid was measured on the 96-well multiwell plate by using a NEFA-C Test Wako which is for measuring free-fatty acid.
The principle of measuring the amount of free-fatty acid is as follows. AcylCoA is produced by the reaction between acylCoA synthetase (ACS) and free-fatty acid. The reaction of acylCoA oxidase (ACOD) with the produced acylCoA generates hydrogen peroxide, and in the presence of this hydrogen peroxide, oxidative condensation between 3-methyl-N-ethyl-N-(β-hydroxyethyl)aniline (MEHA) and 4-aminoantipyrine was done, and thereby a blue-purple dye was produced. The amount of free fatty acid can be detected by measurement Of the optimal absorbance of this blue-purple dye. A large quantity of free fatty acid indicates a high level of lipolysis and an inhibition of intracellular fat accumulation […].

[2] = tested on: athletes of sports which need endurance; assay: Endurance exercise test in athletes after beverage ingestion (stationary bicycle, crossover); assay type: in vivo, human
Experimental: The object of these experiments was 12 athletes (6 males, 6 females) of sports which need endurance (for example, cycling, rowing, or triathlon). The following (a)-(c) were evaluated for a beverage containing the amino acid composition of the present invention, water, and flavor (Example 1), a beverage containing glucose, water, and flavor (Comparative Example 1), and a beverage containing water and flavor (Comparative Example 2): (a) work done during full exercise, (b) total amount of fat oxidation during steady-state submaximal exercise, (c) changes of plasma glucagon concentration and free-fatty acid, and (d) change of blood lactate concentration.
The test used a 3-way double-blind crossover design. The 12 athletes were divided into 6 groups. Each of the groups, which contains 2 athletes, is used in each of the following six kinds of experimental sequential procedures with 3 kinds of beverages (i.e. Example 1 and Comparative Examples 1 and 2).
In FIG. 1, the time, when the fasting was finished, was designated as the base time (i.e. time 0). A prescribed diet and limited exercise had been done during the period from 24 hours before the base time to 12 hours before the base time; fasting was carried out in the period of from 12 hours before the base time to time 0; and the beverage (i.e. Example 1, Comparative Example 1, or Comparative Example 2) was orally ingested at 30 minutes after the finish of the fasting. After the lapse of 30 minutes after ingesting the beverage (designated as the “sample” in FIG. 1), exercise with a stationary training bicycle was performed for 85 minutes at a work load equivalent to 65% of the maximum oxygen intake (referred to below as steady-state submaximal exercise), and, after finishing steady-state submaximal exercise, as much work as possible was completed in 5 minutes on the stationary training bicycle.

[3] = tested on: Mouse fibroblasts (3T3-L1 cells); assay: Inhibition of differentiation of mouse fibroblasts into adipocytes, measured as GPDH activity; assay type: cell-based; conditions: 10 μM in D-MEM medium; control without addition 370 units
Experimental: Experiments were carried out for investigating whether the amino acid composition of the present invention is active in inhibiting the intracellular accumulation of fat granules (specifically, the ability to inhibit the induction of the differentiation of preadipocytes).
Mouse fibroblasts (3T3-LI cells) efficiently differentiate into adipocytes in the presence of dexamethasone (DEX), isobutylmethylxanthine (IBMX), and insulin. It is known that the addition of “Wortmannin”, which is a substance that inhibits the induction of differentiation to adipocytes, inhibits differentiation into adipocytes. This inhibitory effect can be evaluated by measuring the GPDH activity.
The GPDH activity is quantitated in terms of units where 1 unit equals 1 nmol of NADH which is oxidized for one minute in 1 mL of the culture medium for inducing the differentiation of mouse fibroblasts (3T3-LI cells) into adipocytes. A smaller value of units indicates a greater inhibitory effect on differentiation and a greater inhibition of intracellular fat granule accumulation.
The culture medium was obtained by dissolving the same amino acid composition of the present invention as that in Example 1 into D-MEM medium (i.e. serum-containing liquid medium) to provide a concentration of 1 mass %. Almost of the all amount of the amino acid composition was dissolved well by ultrasonication. […]

CC(C)NCC(O)c1ccc(O)c(O)c1 (racemic) [Comparative Example 9, dl-isoproterenol]
average value of absorbance (amount of free-fatty acid) [1]: 0.041

O=C[C@H](O)[C@@H](O)[C@H](O)[C@H](O)CO [Comparative Example 1, glucose]
amount of work during the 5 minutes of full exercise (average value of the 12 participants) ([2]; 380 g beverage (6 g active) orally 30 min before 85 min steady-state submaximal exercise, then 5 min full exercise): 83.3 kJ | total amount of fat oxidation during 85-minute steady-state submaximal exercise ([2]; beverage orally 30 min before exercise at 65% of maximum oxygen intake): 49.3 g | concentration of lactic acid after 5-minute full exercise ([2]; blood, after full exercise): 8.8 mmol/L | concentration of lactic acid immediately before full exercise (after the sustained exercise period) ([2]; blood, before full exercise): 1.5 mmol/L

COC[C@H]1OC(=O)c2coc3c2[C@@]1(C)C1=C(C3=O)[C@@H]2CCC(=O)[C@@]2(C)C[C@H]1OC(C)=O [Comparative Example 4, Wortmannin]
GPDH activity [3]: 47 units
